In patent US20260285859A1, “BI-CYCLIC PYRIMIDINE COMPOUNDS, METHODS AND USES THEREOF” (Zeno Management, Inc., priority 2023, published 2026):

Columns and labels:
[1] = target: T1, PKMYT1 (Homo sapiens, UniProt Q99640); assay: LanthaScreen Eu Kinase Binding Assay, PKMYT1
T1 sequence (Q99640 1-499): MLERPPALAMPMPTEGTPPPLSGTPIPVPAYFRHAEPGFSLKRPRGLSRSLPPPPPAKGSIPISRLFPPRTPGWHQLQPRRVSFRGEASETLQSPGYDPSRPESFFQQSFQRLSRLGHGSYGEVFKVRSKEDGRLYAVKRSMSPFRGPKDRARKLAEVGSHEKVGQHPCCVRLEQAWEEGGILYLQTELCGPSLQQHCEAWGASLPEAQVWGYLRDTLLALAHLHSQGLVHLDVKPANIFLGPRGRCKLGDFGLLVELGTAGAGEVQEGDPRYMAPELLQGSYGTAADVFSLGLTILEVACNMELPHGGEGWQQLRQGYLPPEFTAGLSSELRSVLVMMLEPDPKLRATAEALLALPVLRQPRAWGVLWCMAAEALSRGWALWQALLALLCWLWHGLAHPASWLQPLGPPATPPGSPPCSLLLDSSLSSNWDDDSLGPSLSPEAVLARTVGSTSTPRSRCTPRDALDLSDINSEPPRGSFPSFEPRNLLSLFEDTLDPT
Experimental: (§1) Binding of the tracer to the kinase is detected using a europium-labeled anti-GST antibody, which binds to the fused tag on the kinase protein. […] Inhibitor binding to the kinase competes with tracer binding, resulting in loss of FRET from the donor/acceptor pairs.
(§2) Kinase/Antibody Mixtures and Tracer are diluted to a 2× and 4× working concentration, respectively in this same buffer. […] 0% displacement (no known inhibitor) and 100% displacement (highest concentration of known inhibitor) controls were included on each plate for maximum and minimum Emission Ratio determination, respectively. Dasatinib was used for both PKMYT1 and WEE1 as the known inhibitor.
(§3) IC50 determination was performed using a non-linear regression, variable slope (four parameter), inhibitor v. response equation (Prism 9.0).

[2] = target: WEE1 (Homo sapiens, UniProt P30291); assay: LanthaScreen Eu Kinase Binding Assay, WEE1
Chain of WEE1 (P30291 whole entry): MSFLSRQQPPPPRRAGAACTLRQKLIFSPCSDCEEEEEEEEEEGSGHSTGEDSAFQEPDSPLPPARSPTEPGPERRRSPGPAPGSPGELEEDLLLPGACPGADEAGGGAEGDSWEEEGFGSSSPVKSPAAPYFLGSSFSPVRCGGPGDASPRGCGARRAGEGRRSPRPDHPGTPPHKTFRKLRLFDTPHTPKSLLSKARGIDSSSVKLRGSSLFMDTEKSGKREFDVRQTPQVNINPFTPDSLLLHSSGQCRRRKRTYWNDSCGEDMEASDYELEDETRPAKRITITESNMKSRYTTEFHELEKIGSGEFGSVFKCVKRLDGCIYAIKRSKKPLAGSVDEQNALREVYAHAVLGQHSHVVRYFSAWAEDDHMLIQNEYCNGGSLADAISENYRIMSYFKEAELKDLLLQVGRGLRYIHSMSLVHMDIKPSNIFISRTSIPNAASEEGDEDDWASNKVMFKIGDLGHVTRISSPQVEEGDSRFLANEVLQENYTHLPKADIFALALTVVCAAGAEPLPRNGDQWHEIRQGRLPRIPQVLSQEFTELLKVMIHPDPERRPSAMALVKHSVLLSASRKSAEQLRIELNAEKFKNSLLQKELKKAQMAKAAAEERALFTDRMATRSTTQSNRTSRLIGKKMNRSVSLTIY
Experimental: as §1, §2, §3

Row | SMILES | IC50 [1] | IC50 [2]
1 | Cc1ccc(O)c(C)c1-c1nc(N(C)C2(C(F)(F)F)CC2)cc2c(N)ncnc12 (single isomer, unassigned) [Compound 42-B] | < 10 nM | 100 to 1000 nM
2 | Cc1ccc(O)c(C)c1-c1nc(N2CCCC2=O)cc2c(N)ncnc12 (single isomer, unassigned) [Compound 43-B] | < 10 nM | > 1000 nM
3 | Cc1ccc(O)c(C)c1-c1nc(N(C)C2CCCC2)cc2c(N)ncnc12 (single isomer, unassigned) [Compound 44-B] | < 10 nM | 100 to 1000 nM
4 | CC[C@H](C)N(C)c1cc2c(N)ncnc2c(-c2c(C)ccc(O)c2C)n1 (single isomer, unassigned) [Compound 45-B] | 10 to 100 nM | > 1000 nM
5 | Cc1ccc(O)c(C)c1-c1nc(N(C)c2cnn(C)c2)cc2c(N)ncnc12 (single isomer, unassigned) [Compound 46-B] | < 10 nM | > 1000 nM
6 | Cc1ccc(O)c(C)c1-c1nc(C(F)F)cc2c(N)ncnc12 (single isomer, unassigned) [Compound 48-B] | 10 to 100 nM | > 1000 nM
7 | COc1cc2c(N)ncnc2c(-c2c(C)ccc(O)c2C)n1 (single isomer, unassigned) [Compound 49-B] | 10 to 100 nM | > 1000 nM
8 | Cc1ccc(O)c(C)c1-c1nc(C(C)C)cc2c(N)ncnc12 (single isomer, unassigned) [Compound 50-B] | 10 to 100 nM | > 1000 nM
9 | Cc1ccc(O)c(C)c1-c1c(C)c(N(C)C)cc2c(N)ncnc12 (single isomer, unassigned) [Compound 51-B] | 10 to 100 nM | > 1000 nM
10 | Cc1cc2c(N)ncnc2c(-c2c(C)ccc(O)c2C)c1C (single isomer, unassigned) [Compound 52-B] | 10 to 100 nM | > 1000 nM
11 | Cc1cc(-c2c(C)ccc(O)c2C)c2ncnc(N)c2c1 (single isomer, unassigned) [Compound 53-B] | 10 to 100 nM | > 1000 nM
12 | Cc1ccc(O)c(C)c1-c1nc(N2CC[C@@](C)(F)C2)cc2c(N)ncnc12 (single isomer, unassigned) [Compound 54-B] | < 10 nM | 100 to 1000 nM
13 | Cc1ccc(O)c(C)c1-c1nc(N2CC[C@](C)(F)C2)cc2c(N)ncnc12 (single isomer, unassigned) [Compound 55-B] | < 10 nM | 100 to 1000 nM
14 | Cc1ccc(O)c(C)c1-c1nc(C2=CCOCC2)cc2c(N)ncnc12 (single isomer, unassigned) [Compound 56-B] | < 10 nM | 100 to 1000 nM
15 | C=C(C)c1cc2c(N)ncnc2c(-c2c(C)ccc(O)c2C)n1 (single isomer, unassigned) [Compound 57-B] | < 10 nM | > 1000 nM
16 | Cc1ccc(O)c(C)c1-c1nc(N2CC[C@@H](F)C2)cc2c(N)ncnc12 (single isomer, unassigned) [Compound 58-B] | < 10 nM | 100 to 1000 nM
17 | Cc1ccc(O)c(C)c1-c1nc(N2CC[C@H](F)C2)cc2c(N)ncnc12 (single isomer, unassigned) [Compound 59-B] | < 10 nM | 100 to 1000 nM
18 | Cc1cc2c(N)ncnc2c(-c2c(C)ccc(O)c2C)n1 [Compound 17-B, (S)-3-(4-Amino-6-methylpyrido[3,4-d]pyrimidin-8-yl)-2,4-dimethylphenol] | 10 to 100 nM | > 1000 nM
19 | Cc1ccc(O)c(C)c1-c1nc(-c2ccncc2)cc2c(N)ncnc12 [Compound 32-B, (S)-3-(4-amino-6-(pyridin-4-yl)pyrido[3,4-d]pyrimidin-8-yl)-2,4-dimethylphenol] | < 10 nM | 100 to 1000 nM

Now from value to molecule:

Row | IC50 [1] | IC50 [2] | SMILES
20 | < 10 nM | 100 to 1000 nM | [2H]C([2H])([2H])N(c1cc2c(N)ncnc2c(-c2c(C)ccc(O)c2C)n1)C1CC1 [Compound 60-B, (S)-3-(4-amino-6-(cyclopropyl(methyl-d3)amino)pyrido[3,4-d]pyrimidin-8-yl)-2,4-dimethylphenol]
21 | < 10 nM | > 1000 nM | Cc1ccc(O)c(C)c1-c1nc(N(C)[C@H]2[C@@H]3COC[C@@H]32)cc2c(N)ncnc12 [Compound 61-B, 3-((S)-6-(((1R,5S,6r)-3-oxabicyclo[3.1.0]hexan-6-yl)(methyl)amino)-4-aminopyrido[3,4-d]pyrimidin-8-yl)-2,4-dimethylphenol]
22 | < 10 nM | > 1000 nM | CO[C@H]1C[C@@H](N(C)c2cc3c(N)ncnc3c(-c3c(C)ccc(O)c3C)n2)C1 [Compound 62-B, 3-((S)-4-amino-6-(((1s,3R)-3-methoxycyclobutyl)(methyl)amino)pyrido[3,4-d]pyrimidin-8-yl)-2,4-dimethylphenol]
23 | < 10 nM | > 1000 nM | CO[C@H]1C[C@H](N(C)c2cc3c(N)ncnc3c(-c3c(C)ccc(O)c3C)n2)C1 [Compound 62-D, 3-((S)-4-amino-6-(((1r,3S)-3-methoxycyclobutyl)(methyl)amino)pyrido[3,4-d]pyrimidin-8-yl)-2,4-dimethylphenol]
24 | < 10 nM | > 1000 nM | [2H]C([2H])([2H])N(c1cc2c(N)ncnc2c(-c2c(C)ccc(O)c2C)n1)[C@H]1[C@@H]2COC[C@@H]21 [Compound 63-B, 3-((S)-6-(((1R,5S,6r)-3-oxabicyclo[3.1.0]hexan-6-yl)(methyl-d3)amino)-4-aminopyrido[3,4-d]pyrimidin-8-yl)-2,4-dimethylphenol]
25 | < 10 nM | 100 to 1000 nM | Cc1ccc(O)c(C)c1-c1cc(C2=CCOCC2)nc2c(N)ncnc12 [Compound 71-B, (R)-3-(4-amino-6-(3,6-dihydro-2H-pyran-4-yl)pyrido[3,2-d]pyrimidin-8-yl)-2,4-dimethylphenol]
26 | < 10 nM | > 1000 nM | Cc1ccc(O)c(C)c1-c1cc(NC2CC2)nc2c(N)ncnc12 [Compound 72-B, (R)-3-(4-amino-6-(cyclopropylamino)pyrido[3,2-d]pyrimidin-8-yl)-2,4-dimethylphenol]
27 | 10 to 100 nM | > 1000 nM | Cc1ccc(O)c(C)c1-c1cc(N(C)C)nc2c(N)ncnc12 [Compound 73-B, (R)-3-(4-Amino-6-(dimethylamino)pyrido[3,2-d]pyrimidin-8-yl)-2,4-dimethylphenol]
28 | 10 to 100 nM | > 1000 nM | Cc1cc(-c2c(C)ccc(O)c2C)c2ncnc(N)c2n1 [Compound 74-B, (R)-3-(4-amino-6-methylpyrido[3,2-d]pyrimidin-8-yl)-2,4-dimethylphenol]
29 | 10 to 100 nM | > 1000 nM | Cc1ccc(O)c(C)c1-c1cc(N(C)C2CC2)nc2c(N)ncnc12 [Compound 75-B, (R)-3-(4-amino-6-(cyclopropyl(methyl)amino)pyrido[3,2-d]pyrimidin-8-yl)-2,4-dimethylphenol]
30 | < 10 nM | > 1000 nM | Cc1ccc(O)c(C)c1-c1cc(C2CC2)nc2c(N)ncnc12 [Compound 76-B, (R)-3-(4-amino-6-cyclopropylpyrido[3,2-d]pyrimidin-8-yl)-2,4-dimethylphenol]
